Source: publication PMC5594043, “CYP79 P450 monooxygenases in gymnosperms: CYP79A118 is associated with the formation of taxiphyllin in Taxus baccata” (Plant Molecular Biology, 2017)

Target: T1, CYP79A118 full-length (CYP79A118-M1) (Taxus baccata, UniProt A0A288W866)
T1 construct: full-length ORF; yeast WAT11 microsomes with Arabidopsis CPR1; pESC-Leu2d
Format: biochemical
Settings: 1 mM substrate; NADPH 1 mM; Arabidopsis CPR1 in microsomes; 75 mM sodium phosphate pH 7.0; 25 °C; product indole-3-acetaldoxime

Structure (SMILES): N[C@@H](Cc1c[nH]c2ccccc12)C(=O)O [Trp, L-tryptophan]
- LC-MS/MS of aldoxime product, yeast microsomes: the full-length protein as well as the truncated version showed enzymatic activity with the aromatic
